According to publication PMC12935787, “Clinical pharmacokinetics and pharmacometabolomics of Andrographis paniculata capsules: Bridging drug disposition and metabolic response to precision medicine” (Naunyn-Schmiedeberg's Archives of Pharmacology, 2025):

Tests used:
[1] = tested on: Human metabolic pathways (KEGG); assay: Urine pharmacometabolomics, peaks-to-pathway mummichog analysis; assay type: in vivo, human (healthy volunteers); settings: urinary PMx analysis, 1000 mg and 2000 mg AP (either dose)
Procedure: The protocol was published (Tee et al. [2022]).
Plasma samples (blank and subject) were thawed from −80 °C and processed using cold protein precipitation (200 μL plasma + 600 μL acetone:acetonitrile:methanol [1:1:1]). After −20 °C incubation (1 h) and centrifugation (10,000 rpm, 4 °C, 10 min), supernatants were filtered (0.22 μm) into LC–MS vials. System suitability test using vendor-provided internal standards ensured instrument performance parameters met acceptance criteria prior to metabolomics analysis. Samples (plasma and urine) were prepared in four batches. Each batch was analyzed separately in positive and negative ionization modes using a global metabolomics approach, resulting in eight analytical batches. Each analytical batch commenced with blank water, blank water spiked with internal standard (IS), and blank plasma or urine (with and without IS), all meeting the acceptance criteria in Figure S6 and Figure S7. Five pooled quality control (PQC) samples were analyzed at batch start, with additional PQCs interspersed after every fourth subject sample to monitor LC–MS system stability. Chromatogram overlays of all PQCs for every batch were assessed for consistency and instrument stability. Overlays of PQCs with subject samples were also evaluated in Figure S8. All eight batches met predefined acceptance criteria prior to data processing.
Dose-dependent PMx analyses compared pre-dose (T0) with post-dose time points (T2.5, T3, T3.5) for plasma and pre-dose (U0) with post-dose intervals (0–4 h [U1], 4–8 h [U2], 8–12 h [U3]) for urine, using positive and negative ion mode acquisition.
PCA results for pre- and post-dose urine samples were obtained by performing similar statistical and multivariate analyses of metabolite data (Figure S5). Batch effects were not observed in the normalized datasets for both positive and negative modes at either dose. All urine samples were successfully analyzed, except for samples U13 and U14 for the 1000 mg AP dose in positive mode, which were not captured due to a power supply issue with the LC–MS during the analysis.

[2] = parameters: method as in Songvut et al. [2023b]; settings: ref Songvut et al. [2023b], cited from earlier work; for Cmax, previously reported / Tmax, previously reported: AP dose corresponding to 60 mg of andrographolide

Structure (SMILES): C=C1CC[C@@H]2[C@](C)(CO[C@@H]3O[C@H](CO)[C@@H](O)[C@H](O)[C@H]3O)CCC[C@@]2(C)[C@@H]1CCC1=CCOC1=O [neoandrographolide]
- free compound detected in urine [1]: detected no free
- Cmax, previously reported [2]: 24.4 ± 5.6 ng/mL
- Tmax, previously reported [2]: 54 min

Structure (SMILES): C=C1CC[C@@H]2[C@](C)(CO)[C@H](O)CC[C@@]2(C)[C@@H]1CCC1=CCOC1=O [14-deoxyandrographolide]
- free compound detected in urine [1]: detected no free
- Cmax, previously reported [2]: 4.2 ± 3.4 ng/mL
- Tmax, previously reported [2]: 60 min

Structure (SMILES): C=C1CC[C@@H]2[C@](C)(CO)[C@H](O)CC[C@@]2(C)[C@@H]1C/C=C1/C(=O)OC[C@H]1O [andrographolide]
- free compound detected in urine [1]: detected no free
- Cmax, previously reported [2]: 72.1 ± 28.7 ng/mL
- Tmax, previously reported [2]: 48 min
- tolerance in human PK studies [2]: 180 to 360 mg/day
